pIC50: −log10 of the molar value.
Legend:
[1] = molecular target: T1, neurokinin-1 (NK-1) receptor (Homo sapiens, UniProt P25103); assay: NK-1 Binding assay ([125I] Substance P competition, U373 cell membranes); details: Bolton Hunter labeled [125I] Substance P, 30 min at 20° C.
T1 construct: endogenously expresses the neurokinin-1 (NK-1) receptor; endogenous in cells; host or cells: U373 human glioblastoma-astrocytoma cells (membranes)
Experimental: NK-1 Binding assay. U373 cells, a human glioblastoma-astrocytoma cell line that endogenously expresses the neurokinin-1 (NK-1) receptor, were grown in a monolayer culture at 37° C. in 5% CO2 and fed with Minimum Essential Medium (MEM) supplemented with 10% fetal bovine serum. Membranes were prepared as follows: Cells were washed twice with ice-cold phosphate-buffered saline (pH 7.4) and then incubated for 5–10 minutes with ice-cold 10 mM Tris buffer (pH 7.4) containing 5 mM EDTA. Cells were removed from plates, homogenized, and centrifuged at 32,000×g for 20 minutes. The resulting supernatant was discarded, and the pellet resuspended by homogenization in 50 mM Tris buffer (pH 7.4) containing 1 mM EDTA and centrifuged at 32,000×g for 20 minutes. The resulting supernatant was discarded, and the pellet resuspended by homogenization in NK-1 binding assay buffer (50 mM Tris-HCL (pH 7.4), 3 mM MnCl2, 200 μg/ml BSA, 5 μg/ml chymostatin, 40 μg/ml bacitracin and 4 μg/ml leupeptin).
On the day of an experiment the membrane preparation was thawed, homogenized and diluted with NK-1 binding assay buffer to the appropriate concentration. Competition binding assays were performed in 96 well plate format by incubating membranes (5–10 μg/well) with Bolton Hunter labeled [^125I] Substance P, at a concentration of […], and concentrations of drugs ranging from 10000 to 0.01 nM. Samples were incubated for 30 min at 20° C. then filtered through GF/B glass fiber filters (pretreated with 1% polyethyleneimine and 0.3% Triton X-100) using a Brandel cell harvester. The filters were then washed with 10 ml ice cold 50 mM Tris-HCL (pH 7.4) containing 3 mM MgCl2. Non-specific was defined in the presence of 2 μM L-733,060 (a non-peptide NK-1 antagonist). The amount of radioligand bound in the presence and absence of competitor was analyzed by plotting (−)log drug concentration versus the amount of radioligand specifically bound. The midpoint of the displacement curve (IC50, nM), signifies the potency. Ki values can be calculated using the method of Cheng and Prusoff (Cheng and Prusoff, Biochemical Pharmacology, Vol 22, pp. 3099–3108, Pergamon Press (1973)).

[2] = molecular target: T2, human serotonin transporters (Homo sapiens, UniProt P31645); assay: Serotonin transporter binding assay ([3H]-citalopram competition, HEK-hSERT cell membranes); details: 1 nM [3H]-citalopram, 1 hr at 25° C., read-out: SERT IC50
T2 construct: expressed in transfected cells
T2 sequence (P31645 whole entry): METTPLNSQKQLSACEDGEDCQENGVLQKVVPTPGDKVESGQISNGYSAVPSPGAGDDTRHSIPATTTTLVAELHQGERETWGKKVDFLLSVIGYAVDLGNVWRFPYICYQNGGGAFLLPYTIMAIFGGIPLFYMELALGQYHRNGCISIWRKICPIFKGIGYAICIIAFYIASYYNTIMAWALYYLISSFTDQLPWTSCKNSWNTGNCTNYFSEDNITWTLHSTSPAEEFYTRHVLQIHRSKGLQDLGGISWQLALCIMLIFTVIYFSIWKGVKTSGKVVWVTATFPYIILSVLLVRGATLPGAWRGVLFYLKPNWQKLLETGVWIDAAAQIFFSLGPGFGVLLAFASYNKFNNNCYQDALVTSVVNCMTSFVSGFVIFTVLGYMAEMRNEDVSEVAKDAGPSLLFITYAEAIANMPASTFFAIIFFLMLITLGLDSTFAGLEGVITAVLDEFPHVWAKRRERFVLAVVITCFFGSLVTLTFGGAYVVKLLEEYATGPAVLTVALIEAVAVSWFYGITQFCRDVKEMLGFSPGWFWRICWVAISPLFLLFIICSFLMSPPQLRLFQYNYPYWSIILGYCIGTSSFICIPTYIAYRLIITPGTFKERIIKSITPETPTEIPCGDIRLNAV
Experimental: Serotonin transporter binding assay. HEK-293 cells that stably express human serotonin transporters (HEK-hSERT cells) were grown at 37° C. in 5% CO2 as a monolayer in medium consisting of EMEM supplemented with 10% fetal bovine serum and G418 sulfate (500 μg/ml). To prepare membranes for radioligand binding experiments, cells were rinsed twice with phosphate-buffered saline (138 mM NaCl, 4.1 mM KCl, 5.1 mM Na2PO4, 1.5 mM KH2PO4, 11.1 mM glucose, pH 7.4). Cells were transferred from plates to polypropylene tubes (16×100 mm), centrifuged at 1,200×g for 5 min and were frozen at −80° C. until assay. Following centrifugation, pellets were resuspended by homogenization in buffer consisting of 50 mM Tris (pH 7.7 at 25° C.), 120 mM NaCl and 5 mM KCl and then centrifuged at 32,000×g for 10 min. Following centrifugation, supernatants were discarded and pellets were resuspended in buffer consisting of 50 mM Tris (pH 7.4 at 25° C.), 150 mM NaCl and 5 mM KCl. Membrane homogenates (200 μl/plate) were incubated with 1 nM [^3H]-citalopram (specific activity=85 Ci/mmol) and increasing concentrations of test compounds for 1 hr at 25° C. in a total volume of 250 μl. The assay buffer consisted of 50 mM Tris (pH 7.4 at 25° C.), 120 mM NaCl and 5 mM KCl (pH 7.4 with conc. HCl). Plates were incubated for 1 hr at 25° C., then filtered through 0.5% PEI treated Whatman GF/B filters using a Brandel cell harvester. Filters were washed three times with 3 ml of ice-cold tris wash buffer. Non-specific binding was defined with 10 μM fluoxetine. Amount of radioligand bound in the presence and absence of competitor was analyzed by plotting (−)log drug concentration versus the amount of radioligand specifically bound. The midpoint of the displacement curve (IC50, nM), signifies the potency. Ki values can be calculated using the method of Cheng and Prusoff (Cheng and Prusoff, Biochemical Pharmacology, Vol 22, pp. 3099–3108, Pergamon Press (1973)).

T1 sequence (P25103 whole entry): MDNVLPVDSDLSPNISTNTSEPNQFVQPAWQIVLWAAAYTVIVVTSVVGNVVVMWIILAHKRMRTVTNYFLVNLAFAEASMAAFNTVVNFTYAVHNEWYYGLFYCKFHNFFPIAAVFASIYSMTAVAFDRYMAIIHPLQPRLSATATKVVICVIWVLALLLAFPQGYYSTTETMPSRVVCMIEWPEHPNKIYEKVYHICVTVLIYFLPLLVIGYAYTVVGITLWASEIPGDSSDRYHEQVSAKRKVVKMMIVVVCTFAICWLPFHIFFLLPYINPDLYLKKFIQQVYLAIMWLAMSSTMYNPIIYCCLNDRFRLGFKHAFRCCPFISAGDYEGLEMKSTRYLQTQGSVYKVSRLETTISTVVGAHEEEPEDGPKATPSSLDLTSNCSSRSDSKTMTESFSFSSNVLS

| Compound | pIC50 [1] | pIC50 [2] |
| --- | --- | --- |
| Cc1cccc(COCC(O)(CCN)c2ccccc2)c1 (stereo not shown) [Example 60, 1-(3-methylbenzyloxy)-4-amino-2-phenylbutan-2-ol] | < 6.52 | 7.00 to 9.00 |
| Cc1cccc(C(O)(CCN)COCc2cc(C(F)(F)F)cc(C(F)(F)F)c2)c1C (stereo not shown) [Example 26, 1-(3,5-bis(trifluoromethyl)benzyloxy)-4-amino-2-(2,3-dimethylphenyl)butan-2-ol] | 7.00 to 9.00 | 7.00 to 9.00 |
| Cc1ccc(C(O)(CCN)COCc2cc(C(F)(F)F)cc(C(F)(F)F)c2)cc1F (stereo not shown) [Example 33, 1-(3,5-bis(trifluoromethyl)benzyloxy)-4-amino-2-(3-fluoro-4-methylphenyl)butan-2-ol] | 7.00 to 9.00 | 7.00 to 9.00 |
| NCCC(O)(COCc1cc(C(F)(F)F)cc(C(F)(F)F)c1)c1ccc2ccccc2c1 (stereo not shown) [Example 11, 1-(3,5-bis(trifluoromethyl)benzyloxy)-4-amino-2-(naphthalen-2-yl)butan-2-ol] | 6.52 to 7.00 | 7.00 to 9.00 |
| COc1cccc(COCC(O)(CCN)c2ccccc2)c1 (stereo not shown) [Example 63, 1-(3-methoxybenzyloxy)-4-amino-2-phenylbutan-2-ol] | < 6.52 | 7.00 to 9.00 |
| COc1ccc(C(O)(CCN)COCc2cc(C(F)(F)F)cc(C(F)(F)F)c2)c(OC)c1 (stereo not shown) [Example 46, 1-(3,5-bis(trifluoromethyl)benzyloxy)-4-amino-2-(2,4-dimethoxyphenyl)butan-2-ol] | < 6.52 | 7.00 to 9.00 |
| CNCCC(O)(COCc1cc(C(F)(F)F)cc(C(F)(F)F)c1)c1ccccc1 (stereo not shown) [Example 6, 1-(3,5-bis(trifluoromethyl)benzyloxy)-4-(methylamino)-2-phenylbutan-2-ol] | 7.00 to 9.00 | 7.00 to 9.00 |
| CC(CN)(COCc1cc(C(F)(F)F)cc(C(F)(F)F)c1)c1ccccc1 (stereo not shown) [Example 77, 1-(3,5-bis(trifluoromethyl)benzyloxy)-3-amino-2-methyl-2-phenylpropane] | 6.52 to 7.00 | 6.52 to 7.00 |
| NCCC(O)(COCc1cc(C(F)(F)F)cc(C(F)(F)F)c1)c1cccs1 (stereo not shown) [Example 44, 1-(3,5-bis(trifluoromethyl)benzyloxy)-4-amino-2-(thiophen-2-yl)butan-2-ol] | 7.00 to 9.00 | 7.00 to 9.00 |
| Cc1ccc(C)c(C(O)(CCN)COCc2cc(C(F)(F)F)cc(C(F)(F)F)c2)c1 (stereo not shown) [Example 37, 1-(3,5-bis(trifluoromethyl)benzyloxy)-4-amino-2-(2,5-dimethylphenyl)butan-2-ol] | 7.00 to 9.00 | 7.00 to 9.00 |
| Cc1ccc(C(O)(CCN)COCc2cc(C(F)(F)F)cc(C(F)(F)F)c2)cc1C (stereo not shown) [Example 32, 1-(3,5-bis(trifluoromethyl)benzyloxy)-4-amino-2-(3,4-dimethylphenyl)butan-2-ol] | 7.00 to 9.00 | 7.00 to 9.00 |
| NCCC(O)(COCc1ccc(C(F)(F)F)cc1)c1ccccc1 (stereo not shown) [Example 56, 1-(4-(trifluoromethyl)benzyloxy)-4-amino-2-phenylbutan-2-ol] | < 6.52 | 6.52 to 7.00 |
| Cc1cccc(C(O)(CCN)COCc2cc(C(F)(F)F)cc(C(F)(F)F)c2)c1 (stereo not shown) [Example 17, 1-(3,5-bis(trifluoromethyl)benzyloxy)-4-amino-2-m-tolylbutan-2-ol] | 7.00 to 9.00 | 7.00 to 9.00 |
| NCCC(O)(COCc1cc(F)cc(F)c1)c1ccccc1 (stereo not shown) [Example 64, 1-(3,5-difluorobenzyloxy)-4-amino-2-phenylbutan-2-ol] | 6.52 to 7.00 | 7.00 to 9.00 |
| Cc1ccccc1COCC(O)(CCN)c1ccccc1 (stereo not shown) [Example 67, 1-(2-methylbenzyloxy)-4-amino-2-phenylbutan-2-ol] | < 6.52 | 6.52 to 7.00 |
| COc1ccc(OC)c(C(O)(CCN)COCc2cc(C(F)(F)F)cc(C(F)(F)F)c2)c1 (stereo not shown) [Example 27, 1-(3,5-bis(trifluoromethyl)benzyloxy)-4-amino-2-(2,5-dimethoxyphenyl)butan-2-ol] | 6.52 to 7.00 | 7.00 to 9.00 |
| NCCC(COCc1cc(C(F)(F)F)cc(C(F)(F)F)c1)c1ccccc1 (stereo not shown) [Example 71, 1-(3,5-bis(trifluoromethyl)benzyloxy)-4-amino-2-phenylbutane] | 7.00 to 9.00 | 6.52 to 7.00 |
| COc1ccc(C(O)(CCN)COCc2cc(C(F)(F)F)cc(C(F)(F)F)c2)cc1OC (stereo not shown) [Example 39, 1-(3,5-bis(trifluoromethyl)benzyloxy)-4-amino-2-(3,4-dimethoxyphenyl)butan-2-ol] | 6.52 to 7.00 | 7.00 to 9.00 |
| NCCC(O)(COCc1cccc(Cl)c1)c1ccccc1 (stereo not shown) [Example 65, 1-(3-chlorobenzyloxy)-4-amino-2-phenylbutan-2-ol] | < 6.52 | 7.00 to 9.00 |
| Cc1ccc(F)cc1C(O)(CCN)COCc1cc(C(F)(F)F)cc(C(F)(F)F)c1 (stereo not shown) [Example 29, 1-(3,5-bis(trifluoromethyl)benzyloxy)-4-amino-2-(5-fluoro-2-methylphenyl)butan-2-ol] | 7.00 to 9.00 | 7.00 to 9.00 |
| NCCC(O)(COCc1ccccc1C(F)(F)F)c1ccccc1 (stereo not shown) [Example 54, 1-(2-(trifluoromethyl)benzyloxy)-4-amino-2-phenylbutan-2-ol] | < 6.52 | 7.00 to 9.00 |
| Cc1ccc(C(O)(CCN)COCc2cc(C(F)(F)F)cc(C(F)(F)F)c2)c2ccccc12 (stereo not shown) [Example 22, 1-(3,5-bis(trifluoromethyl)benzyloxy)-4-amino-2-(4-methylnaphthalen-1-yl)butan-2-ol] | 6.52 to 7.00 | 7.00 to 9.00 |
| NCCC(O)(COCc1ccccc1Br)c1ccccc1 (stereo not shown) [Example 52, 1-(2-bromobenzyloxy)-4-amino-2-phenylbutan-2-ol] | < 6.52 | 7.00 to 9.00 |
| COc1ccc(F)cc1C(O)(CCN)COCc1cc(C(F)(F)F)cc(C(F)(F)F)c1 (stereo not shown) [Example 25, 1-(3,5-bis(trifluoromethyl)benzyloxy)-4-amino-2-(5-fluoro-2-methoxyphenyl)butan-2-ol] | 7.00 to 9.00 | 6.52 to 7.00 |
| NCCC(O)(COCc1ccc(OC(F)(F)F)cc1)c1ccccc1 (stereo not shown) [Example 49, 1-(4-(trifluoromethoxy)benzyloxy)-4-amino-2-phenylbutan-2-ol] | < 6.52 | < 6.52 |
| NCCC(O)(COCc1ccc(Br)cc1)c1ccccc1 (stereo not shown) [Example 66, 1-(4-bromobenzyloxy)-4-amino-2-phenylbutan-2-ol] | < 6.52 | 6.52 to 7.00 |
| NCCC(O)(COCc1cc(C(F)(F)F)cc(C(F)(F)F)c1)c1cccc2ccccc12 (stereo not shown) [Example 34, 1-(3,5-bis(trifluoromethyl)benzyloxy)-4-amino-2-(naphthalen-1-yl)butan-2-ol] | 7.00 to 9.00 | 7.00 to 9.00 |
| Cc1cc(C)cc(C(O)(CCN)COCc2cc(C(F)(F)F)cc(C(F)(F)F)c2)c1 (stereo not shown) [Example 18, 1-(3,5-bis(trifluoromethyl)benzyloxy)-4-amino-2-(3,5-dimethylphenyl)butan-2-ol] | 7.00 to 9.00 | 7.00 to 9.00 |
| NCCC(O)(COCc1cccc(Br)c1)c1ccccc1 (stereo not shown) [Example 48, 1-(3-bromobenzyloxy)-4-amino-2-phenylbutan-2-ol] | < 6.52 | 7.00 to 9.00 |
